Results as given in ChEMBL document CHEMBL1133765, “QSAR model for drug human oral bioavailability” (J Med Chem, 2000).

What was measured:
physchem [1] = conditions: octanol/water
[2] = octanol/water
clinical = conditions: human, in vivo, po
physchem [3] = assay: physchem

Structure (SMILES) | logD (physchem [1]; pH 6.5, logD) | delta logD [2] | bioavailability (clinical; F) | pKa (physchem [3]) | logD (physchem [1]; pH 6.5) | bioavailability (clinical)
CO/C(O)=C1\C(C)=NC(C)=C(C(=O)OCC(C)C)C1c1ccccc1[N+](=O)[O-] (stereo unspecified) | 1.58 | 0 | < 20% |  |  | 
Nc1nc(N)c2nc(-c3ccccc3)c(N)nc2n1 | 0.8 | -0.15 | 79% | 6.2 |  | 
COc1cc2nc(N3CCN(C(=O)C4CCCO4)CC3)nc(N)c2cc1OC (stereo unspecified) [TERAZOSIN] | 0.29 | -0.52 | > 80% |  |  | 
CCCCCc1cc(O)c2c(c1)OC(C)(C)[C@@H]1CCC(C)=C[C@@H]21 [DRONABINOL] |  | 0 |  |  | 4.49 | < 20%
CNC(=C[N+](=O)[O-])NCCSCc1csc(CN(C)C)n1 [NIZATIDINE] | -0.08 | -0.38 | > 80% | 6.8 |  | 
C[C@H]1C[C@H]2[C@@H]3CCC4=CC(=O)C=C[C@]4(C)[C@@]3(F)[C@@H](O)C[C@]2(C)[C@@]1(O)C(=O)CO [BETAMETHASONE] | 1.94 | 0 |  |  |  | 
CC(=O)S[C@@H]1CC2=CC(=O)CC[C@]2(C)[C@H]2CC[C@@]3(C)[C@@H](CC[C@@]34CCC(=O)O4)[C@H]12 [SPIRONOLACTONE] | 2.78 | 0 | 49% |  |  | 
CNC1=Nc2ccc(Cl)cc2C(c2ccccc2)=[N+]([O-])C1 [CHLORDIAZEPOXIDE] |  | -0.01 |  | 4.8 | 2.43 | > 80%
C[C@@H]1C[C@H]2[C@@H]3CCC4=CC(=O)C=C[C@]4(C)[C@@]3(F)[C@@H](O)C[C@]2(C)[C@@]1(O)C(=O)CO [DEXAMETHASONE] | 1.83 | 0 |  |  |  | 
O=C1CN=C(c2ccccc2Cl)c2cc([N+](=O)[O-])ccc2N1 [CLONAZEPAM] |  | 0 |  |  | 2.41 | > 80%
Oc1ccc2c3c1O[C@H]1[C@@H](O)CC[C@@]4(O)[C@@H](C2)N(CC2CCC2)CC[C@]314 [NALBUPHINE] |  | -0.88 |  | 8.7 | -0.63 | < 20%
O=P1(N(CCCl)CCCl)NCCCO1 (stereo unspecified) [CYCLOPHOSPHAMIDE ANHYDROUS] |  | 0 |  |  | 0.63 | > 80%
CN(C/C=C/C#CC(C)(C)C)Cc1cccc2ccccc12 [TERBINAFINE] | 3.3 | -0.86 | 49% | 8.5 |  | 
CC(C)=CCN1CC[C@@]2(C)c3cc(O)ccc3C[C@@H]1[C@@H]2C |  | -0.88 |  | 8.8 | 1.05 | 49%
CC(C)(C)NC(=O)C1CC[C@H]2[C@]3(C)CC[C@H]4NC(=O)C=C[C@]4(C)[C@H]3CC[C@]12C (stereo partly specified) | 3.03 | 0 | 79% |  |  | 
CNC[C@H](O)c1ccc(O)c(O)c1 [EPINEPHRINE] | -3.49 | -0.9 | < 20% | 9.9 |  | 
CN(C)CC(Oc1ccccc1)Oc1ccccc1 [MEDIFOXAMINE] | -0.43 | -0.89 | 49% | 9.2 |  | 
CNCCC[C@]12CC[C@H](c3ccccc31)c1ccccc12 | 0.52 | -0.9 | 79% | 10.5 |  | 
O=c1n(CCCN2CCN(c3cccc(Cl)c3)CC2)nc2ccccn12 [TRAZODONE] | 1.47 | -0.33 | > 80% | 6.7 |  | 
COC(=O)C1=C(C#N)NC(C)=C(C(=O)OC(C)C)C1c1cccc([N+](=O)[O-])c1 (stereo unspecified) [NILVADIPINE] | 1.99 | 0 | < 20% |  |  | 
C#C[C@]1(O)CC[C@H]2[C@@H]3CCC4=CC(=O)CC[C@@H]4[C@H]3CC[C@@]21C [NORETHINDRONE] | 2.97 | 0 | 79% |  |  | 
C=CCN1CC[C@]23c4c5ccc(O)c4O[C@H]2C(=O)CC[C@@]3(O)[C@H]1C5 [NALOXONE] |  | -0.81 |  |  | 0.64 | < 20%
O=C(CCCN1CCC(O)(c2ccc(Cl)cc2)CC1)c1ccc(F)cc1 [HALOPERIDOL] | 1.42 | -0.86 | 79% |  |  | 
CCNC(C)Cc1cccc(C(F)(F)F)c1 (stereo unspecified) [FENFLURAMINE] |  | -0.9 |  | 10 | 0.4 | 79%
CCOC(=O)c1ncn2c1CN(C)C(=O)c1cc(F)ccc1-2 [FLUMAZENIL] |  | -0.14 |  | 6.2 | 1.01 | < 20%
CCNCC(O)c1cccc(O)c1 (stereo unspecified) [ETILEFRINE] |  | -0.9 |  | 9.8 | -2.86 | 49%
CC(C)NCC(O)c1cc(O)cc(O)c1 (stereo unspecified) [METAPROTERENOL] | -2.72 | -0.9 | < 20% | 9.3 |  | 
CC(C)NCC(O)c1ccc(O)c(O)c1 (stereo unspecified) [ISOPROTERENOL] | -2.76 | -0.88 | 49% | 8.7 |  | 
CNC[C@H](O)c1cccc(O)c1 [PHENYLEPHRINE] | -3.02 | -0.9 | 49% | 9.8 |  | 
